# Measurements taken from patent US20240002332A1, “Small Molecule Inhibitors of SARS-CoV-2 Infections” (priority 2020, published 2024).
# Read-outs that look alike come from different tables or passages of the source.
# Columns and labels:
# [1] = Rat liver microsomal (RLM) stability; details: for half-life: rat
# [2] = system: Vero-E6; test: Cytotoxicity counter screen (cell viability, CellTiter-Glo); type: cell-based; details: for IC50: Chlorocebus sabaeus, read-out: IC50 (μM) cell viability
# Method: Compound cytotoxicity was assessed in a BSL-2 counter screen as follows: Cell culture media (MEM, 1% Pen/Strep/GlutaMax, 1% HEPES, 2% HI FBS) was dispensed at 5 μl/well into ARPs and incubated at room temperature to allow for compound dissolution. Vero-E6 (selected for high ACE2 expression) was dispensed into assay plates at 4000 cells/well in 25 μl media. Assay plates were incubated for 72 h at 37 C, 5% CO2, 90% humidity. Then, 30 μl/well of CellTiter-Glo (Promega #G7573) was dispensed into the assay plate. Luminescence was read using a BMG PHERAstar plate reader following incubation at room temperature for 10 min to measure cell viability.
# [3] = Parallel artificial membrane permeability assay (PAMPA); details: for Papp / Permeability: PAMPA; for Permeability: Tier I ADME
# [4] = system: SARS CoV-2 (USA_WA1/2020); test: Cytopathic effect (CPE) assay; type: cell-based; details: for Emax: read-out: Efficacy CPE assay
# [5] = Kinetic solubility (Tier I ADME); details: kinetic from dmso stock
# [6] = system: SARS-CoV-2; test: SARS-CoV-2 viral titer in human bronchial epithelial cells (HBEC; EpiAirway); type: cell-based; details: dilutions 0.01, 0.1, 1, 10 micrograms per mL
# Method: In the first part of the experiment, the test compounds were diluted in Assay medium (AIR-100-ASY). The test compound dilutions (0.01, 0.1, 1, 10 micrograms per mL) were added to each insert on the apical layer (0.15 mL) and basal layer (0.85 mL). Following the 1 h treatment, the apical medium was removed, and the basal side was replaced with fresh compound. Virus (0.15 mL) was then added to each insert on the apical layer, removed after 1 h and washed with 0.4 mL TEER buffer. The basal side medium/compound was replaced with 1 mL of Assay medium. Every twenty-four hours, the apical layer of the tissues were washed with 0.4 mL of TEER buffer and aliquoted to separate microfuge tubes. Trizol LS (1.2 mL) was added to each tube, pipetted up and down several times and stored at −80° C. The basal layer supernatant (1 mL) was collected from each well, aliquoted into separate microfuge tubes and stored at −80° C. The basal side medium was replaced with 1 mL of Maintenance Medium.
# In the second part of the experiment, RNA was isolated from the trizol samples and the supernatants from all treatments were tittered by plaque assay or TCID50 to determine the amount of virus present in each sample.
# [7] = in vitro; details: rat, microsomes
# [8] = physchem; details: kinetic from dmso stock
# [9] = in vitro; details: PAMPA
# [10] = system: SARS-CoV-2; details: EIDD-2801 250 mpk BID; Compound P3 60 mpk BID
# Text: EIDD-2801 (molnupiravir) was chosen as the positive control at 250 mpk BID oral dose.
# [11] = system: ZIKV; details: cited from earlier work
# [12] = Pharmacokinetics in mice IV 3 and PO 10 mg/kg; plasma, lung and liver
# [13] = Vero C1008, uninfected Vero-E6, 72 h, CellTiter-Glo
# [14] = Severe acute respiratory syndrome coronavirus 2, Vero C1008, % inhibition of CPE, SARS-CoV-2-infected Vero-E6, 72 h
# [15] = Severe acute respiratory syndrome coronavirus 2, Vero C1008, rescue IC50, SARS-CoV-2-infected Vero-E6, 72 h
# [16] = uninfected Vero-E6, 72 h, CellTiter-Glo
# [17] = Severe acute respiratory syndrome coronavirus 2, Vero C1008, 72 h
# [18] = mice, Compound P3 dosed PO 10 mg/kg, Liver
# [19] = mice, Compound P3 dosed PO 10 mg/kg, Plasma
# [20] = mouse Plasma, Compound P3 dosed IV 3 mg/kg
# [21] = mouse Plasma, Compound P3 dosed PO 10 mg/kg
smiles,measurement,setting,value
"O=C(Nc1ccc([N+](=O)[O-])cc1Cl)c1cc(Cl)ccc1OC1CCNCC1 [Compound 4, 5-chloro-N-(2-chloro-4-nitrophenyl)-2-(piperidin-4-yloxy)benzamide]",half-life,[1]; rat liver microsomes,> 30 min
same,IC50,[2]; [13],4.05 µM
same,Papp,[3],516 ×10⁻⁶ cm/s
same,Emax,[4]; [14],-8.3%
same,IC50,[4]; [15],5.1 µM
same,solubility,[5],8.4 µg/mL
"O=C(Nc1ccc([N+](=O)[O-])cc1Cl)c1cc(Br)ccc1O [Compound 6, 5-bromo-N-(2-chloro-4-nitrophenyl)-2-hydroxybenzamide]",half-life,[1]; microsomes,> 30 min
same,IC50,"[2]; Vero C1008, 72 h",0.4 µM
same,Efficacy cell viability,[2]; [16],−94.8
same,Permeability,[3],67 10^−6 cm/sec
same,inhibition of SARS-CoV-2 (viral titer),[6],effectively inhibited SARS-CoV-2 in human bronchial epithelial cells at sub-nanomolar and nanomolar concentrations
"O=C(Nc1ccc([N+](=O)[O-])cc1)c1cc(Cl)ccc1O [Compound 24, 5-chloro-2-hydroxy-N-(4-nitrophenyl)benzamide]",RLM stability (T1/2 min),[1]; rat liver microsomes,22 min
same,IC50,"[2]; Vero C1008, 72 h",0.57 µM
same,Efficacy cell viability,[2]; [16],−93.1
same,Permeability,[3],127.13 10^−6 cm/sec
"COc1cc([N+](=O)[O-])ccc1NC(=O)c1cc(Cl)ccc1O [Compound 27, 5-chloro-2-hydroxy-N-(2-methoxy-4-nitrophenyl)benzamide]",half-life,[1]; microsomes,> 30 min
same,IC50,"[2]; Vero C1008, 72 h",0.64 µM
same,Efficacy cell viability,[2]; [16],−92.9
same,Permeability,[3],334.4 10^−6 cm/sec
"N#Cc1ccc(NC(=O)c2cc(Cl)ccc2O)c(Cl)c1 [Compound 32, 5-chloro-N-(2-chloro-4-cyanophenyl)-2-hydroxybenzamide]",half-life,[1]; rat liver microsomes,> 30 min
same,IC50,[2]; [13],1.01 µM
same,Efficacy cell viability,[2]; [16],−99.6
same,Papp,[3],5.16 ×10⁻⁶ cm/s
"O=C(Nc1ccc(C(F)(F)F)cc1)c1cc(Cl)ccc1O [Compound 39, 5-chloro-2-hydroxy-N-(4-(trifluoromethyl)phenyl)benzamide]",half-life,[1]; microsomes,> 30 min
same,IC50,"[2]; Vero C1008, 72 h",0.45 µM
same,Efficacy cell viability,[2]; [16],−94.6
same,Papp,[3],22.3 ×10⁻⁶ cm/s
"O=C(Nc1ccc(C(F)(F)F)c(F)c1)c1cc(Br)ccc1O [Compound 59, 5-bromo-N-(3-fluoro-4-(trifluoromethyl)phenyl)-2-hydroxybenzamide]",IC50,[2]; [13],0.45 µM
same,Efficacy cell viability,[2]; [16],−91.7
same,half-life,[7],> 30 min
"O=C(Oc1ccc(Cl)cc1C(=O)Nc1ccc([N+](=O)[O-])cc1Cl)c1ccc(C(F)(F)F)cc1 [Compound P1, 4-chloro-2-((2-chloro-4-nitrophenyl)carbamoyl)phenyl 4-(trifluoromethyl)benzoate]",IC50,[2]; [13],0.57 µM
same,Efficacy cell viability,[2]; [16],−96.34
same,solubility,[8],< 1 µg/mL
same,Papp,[9],< 2.6 ×10⁻⁶ cm/s
same,Emax,[4]; [14],34%
same,IC50,[4]; [15],0.11 µM
"CCCCCCCC(=O)Oc1ccc(Cl)cc1C(=O)Nc1ccc([N+](=O)[O-])cc1Cl [Compound P2, 4-chloro-2-((2-chloro-4-nitrophenyl)carbamoyl)phenyl octanoate]",IC50,[2]; [13],0.57 µM
same,Efficacy cell viability,[2]; [16],−95.8
same,solubility,[8],1.1 µg/mL
same,Papp,[9],< 6.5 ×10⁻⁶ cm/s
same,Emax,[4]; [14],36.5%
same,IC50,[4]; [15],0.1 µM
"CC(=O)Oc1ccc(Cl)cc1C(=O)Nc1ccc([N+](=O)[O-])cc1Cl [Compound P4, 4-chloro-2-((2-chloro-4-nitrophenyl)carbamoyl)phenyl acetate]",IC50,[2]; [13],0.57 µM
same,Efficacy cell viability,[2]; [16],−93.0
same,solubility,[8],< 1 µg/mL
same,Papp,[9],632 ×10⁻⁶ cm/s
same,Emax,[4]; [14],36.2%
same,IC50,[4]; [15],0.25 µM
"COCC(=O)Oc1ccc(Cl)cc1C(=O)Nc1ccc([N+](=O)[O-])cc1Cl [Compound P5, 4-chloro-2-((2-chloro-4-nitrophenyl)carbamoyl)phenyl 2-methoxyacetate]",IC50,[2]; [13],0.51 µM
same,Efficacy cell viability,[2]; [16],−91.2
same,solubility,[8],< 1 µg/mL
same,Emax,[4]; [14],37%
same,IC50,[4]; [15],0.11 µM
"CC(C)OC(=O)Oc1ccc(Cl)cc1C(=O)Nc1ccc([N+](=O)[O-])cc1Cl [Compound P6, 4-chloro-2-((2-chloro-4-nitrophenyl)carbamoyl)phenyl isopropyl carbonate]",IC50,[2]; [13],0.45 µM
same,Efficacy cell viability,[2]; [16],−82.3
same,solubility,[8],< 1 µg/mL
same,Papp,[9]; pH 5,57 ×10⁻⁶ cm/s
same,Emax,[4]; [14],37.1%
same,IC50,[4]; [15],0.11 µM
"O=C(Oc1ccc(Cl)cc1C(=O)Nc1ccc([N+](=O)[O-])cc1Cl)c1ccccc1 [Compound P7, 4-chloro-2-((2-chloro-4-nitrophenyl)carbamoyl)phenyl benzoate]",IC50,[2]; [13],0.32 µM
same,Efficacy cell viability,[2]; [16],−94.0
same,solubility,[8],< 1 µg/mL
same,Emax,[4]; [14],26.9%
same,IC50,[4]; [15],0.13 µM
"CCOP(=O)(OCC)Oc1ccc(Cl)cc1C(=O)Nc1ccc([N+](=O)[O-])cc1Cl [Compound P8, 4-chloro-2-((2-chloro-4-nitrophenyl)carbamoyl)phenyl diethyl phosphate]",half-life,[1]; microsomes,> 30 min
same,IC50,"[2]; Vero C1008, 72 h",0.91 µM
same,Efficacy cell viability,[2]; [16],−90.6
same,Papp,[3],982 ×10⁻⁶ cm/s
same,IC50,[4]; [17],0.41 µM
same,Emax,[4]; [17],36.8%
same,solubility,[5],< 1 µg/mL
"CC(C)COC(=O)Oc1ccc(Cl)cc1C(=O)Nc1ccc([N+](=O)[O-])cc1Cl [Compound P9, 4-chloro-2-((2-chloro-4-nitrophenyl)carbamoyl)phenyl isobutyl carbonate]",IC50,[2]; [13],0.57 µM
same,Efficacy cell viability,[2]; [16],−91.0
same,solubility,[8],4.48 µg/mL
same,Emax,[4]; [14],35.2%
same,IC50,[4]; [15],0.13 µM
"CC(C)C(=O)OC[C@H]1O[C@@H](n2ccc(NO)nc2=O)[C@H](O)[C@@H]1O [EIDD-2801, reference compound]",IHC immunoreactivity staining in the right lung,[10],lowered in severity
"O=C(Nc1ccc([N+](=O)[O-])cc1Cl)c1cc(Cl)ccc1O [Niclosamide, 5-chloro-N-(2-chloro-4-nitrophenyl)-2-hydroxybenzamide, reference compound]",RLM stability (T1/2 min),[1]; rat liver microsomes,>30 min
same,half-life,[1]; rat liver microsomes,> 30 min
same,ZIKV growth,[11]; early stages and 24 h post infection,inhibited ZIKV growth
same,ZIKV titer,[11]; human placental epithelial cells and iPSC-derived human neural progenitor cells,reduced ZIKV titer
same,permeability in PAMPA,[3]; result in words,unable to be quantified in the acceptor compartment
same,AUC_% Extrap,[12]; [18],4.4%
same,t1/2,[12]; [18],438 min
same,AUC_% Extrap,"[12]; mice, Compound P3 dosed PO 10 mg/kg, Lung",0.6%
same,AUC0-INF,[12]; [19],1620 ng·h/mL
same,AUC_% Extrap,[12]; [19],1.0%
same,AUC_%Extrap_obs,[12]; [20],0.3%
same,Clast,[12]; [20],0.329 ng/mL
same,Tlast,[12]; [20],30 h
same,AUCINF_obs,[12]; [21],1620 ng·h/mL
same,AUC_%Extrap_obs,[12]; [21],1.0%
same,Clast,[12]; [21],4.04 ng/mL
same,Cmax,[12]; [21],346 ng/mL
same,Tlast,[12]; [21],30 h
same,t½,[12]; [21],162 min
same,AUC(0-inf),"[12]; mouse, liver, po, 10 mg/kg",9250 ng·h/mL
same,AUC(0-t),"[12]; mouse, liver, po, 10 mg/kg",8850 ng·h/mL
same,Cmax,"[12]; mouse, liver, po, 10 mg/kg",882 ng/mL
same,AUC(0-inf),"[12]; mouse, lung, po, 10 mg/kg",3080 ng·h/mL
same,AUC(0-t),"[12]; mouse, lung, po, 10 mg/kg",3060 ng·h/mL
same,Cmax,"[12]; mouse, lung, po, 10 mg/kg",397 ng/mL
same,half-life,"[12]; mouse, lung, po, 10 mg/kg",258 min
same,AUC(0-inf),"[12]; mouse, plasma, iv, 3 mg/kg",587 ng·h/mL
same,AUC(0-t),"[12]; mouse, plasma, iv, 3 mg/kg",585 ng·h/mL
same,Cmax,"[12]; mouse, plasma, iv, 3 mg/kg",168 ng/mL
same,Tmax,"[12]; mouse, plasma, iv, 3 mg/kg",4.98 min
same,half-life,"[12]; mouse, plasma, iv, 3 mg/kg",216 min
same,AUC(0-t),"[12]; mouse, plasma, po, 10 mg/kg",1600 ng·h/mL
same,half-life,"[12]; mouse, plasma, po, 10 mg/kg",162 min
